According to patent publication US8575091B1, “Amylin analogues and pharmaceutical compositions thereof” (Novo Nordisk A/S, priority 2012, dated 2013):
Numbered stars: 1 amine (or outer) side, 2 acyl side, 3 side chain; on linkers, the order of the positions; unused ones are H or OH. Bridge positions count the residues as written; N and C are the ends. Side chains are listed from the residue outwards. Peptide text beside a SMILES is read from it. * marks the point of attachment. C20 diacid = O=C(O)CCCCCCCCCCCCCCCCCCC(=O)*; γGlu = O=C(O)[C@H](CCC(=O)[*:2])N[*:1]

Columns and labels:
human amylin receptor = biological target: T1, human amylin receptor (Homo sapiens, UniProt O60896+P30988); experiment: Assay (V) binding to the human amylin receptor (SPA, 125I-rat amylin); settings: human amylin receptor membranes, SPA; read-out: hAmylin-R bind IC50
T1 construct: expressed in transfected cells
T1 sequence (P30988 25-474): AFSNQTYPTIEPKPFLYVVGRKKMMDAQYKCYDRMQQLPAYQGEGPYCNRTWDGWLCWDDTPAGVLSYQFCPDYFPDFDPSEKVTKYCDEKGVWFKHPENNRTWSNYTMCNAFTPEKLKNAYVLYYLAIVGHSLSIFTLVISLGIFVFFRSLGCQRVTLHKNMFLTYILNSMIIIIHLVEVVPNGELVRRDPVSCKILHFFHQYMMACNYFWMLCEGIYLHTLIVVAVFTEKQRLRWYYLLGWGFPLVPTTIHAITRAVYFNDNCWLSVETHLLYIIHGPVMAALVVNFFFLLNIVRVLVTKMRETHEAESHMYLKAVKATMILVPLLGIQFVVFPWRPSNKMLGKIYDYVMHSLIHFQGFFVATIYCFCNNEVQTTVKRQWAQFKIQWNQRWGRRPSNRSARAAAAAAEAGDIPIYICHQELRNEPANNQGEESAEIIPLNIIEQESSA
T1 sequence (O60896 24-148 partner): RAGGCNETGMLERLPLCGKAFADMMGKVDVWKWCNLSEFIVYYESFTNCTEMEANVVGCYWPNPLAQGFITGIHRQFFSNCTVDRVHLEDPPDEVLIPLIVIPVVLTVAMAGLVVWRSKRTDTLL
How it was run: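 SPA competition binding on membranes from Amylin 3(a)/CRE-luc cells, 35 ng/μL membranes with 0.05 mg/well beads. Buffer 50 mM Hepes pH 7.4, 1 mM CaCl2, 5 mM MgCl2, 0.1% OA, 0.02% Tween20. IC50 from one-site competition fit as affinity measure.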

[1] = biological target: T2, human calcitonin receptor (Homo sapiens, UniProt P30988); experiment: Assay (VII) binding to the human calcitonin receptor (SPA, 125I-Calcitonin); settings: read-out: hCTR bind IC50;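 note: cell membranes coupled to SPA beads, competitive displacement read by scintillation counting, IC50 derived from a one-site competition fit as a measure of receptor affinity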
T2 construct: expressed in transfected cells
T2 sequence (P30988 25-474): T1 sequence (P30988 25-474)

[2] = biological target: T2, human calcitonin receptor; experiment: Assay (II)a functional assay, human calcitonin receptor (CRE luciferase, BHK cells);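 note: luminescence from a CRE-driven luciferase reporter, read by single photon counting after cells were exposed to test samples for 3 h at 37 °C under 5% CO2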; type: cell-based; settings: read-out: hCTR funct. EC50
[3] = biological target: T3, human amylin receptor (amylin 3(a) receptor: human calcitonin receptor + RAMP-3) (Homo sapiens, UniProt O60896+P30988); experiment: Assay (II)a functional assay, human amylin receptor (CRE luciferase, BHK cells); type: cell-based; settings: for EC50: functional assay, human amylin receptor, read-out: hAmylin-R funct. EC50
T3 construct: expressed in transfected cells
T3 sequence (P30988 25-474): T1 sequence (P30988 25-474)
T3 sequence (O60896 24-148 partner): T1 sequence (O60896 24-148 partner)

[4] = Table 6, human functional selectivity (hCTR EC50 / hAmylin-R EC50)

IC50 (human amylin receptor) [nM] | IC50 [1] [nM] | EC50 [2] [nM] | Ratio hCT/hAmylin funct. [3, 4] | Ratio hCT/hAmylin funct. ([3]; Table 6a, human functional selectivity (hCTR EC50 / hAmylin-R EC50), at least 5) | Ratio hCT/hAmylin funct. ([3]; Table 6j, hCTR funct. EC50 / hAmylin-R funct. EC50) | Ratio hCT/hAmylin funct. ([3]; Table 6k, hCTR funct. EC50 / hAmylin-R funct. EC50) | EC50 [3] [nM] | SMILES
0.348 | 35 | 0.818 | 10.0 | 10.0 | 10.0 | 10.0 | 0.082 | CC[C@H](C)[C@H](NC(=O)[C@H](C)NC(=O)CNC(=O)[C@H](Cc1ccccc1)NC(=O)[C@H](CC(N)=O)NC(=O)[C@@H]1CCCN1C(=O)[C@H](CO)NC(=O)[C@H](CO)NC(=O)[C@H](Cc1c[nH]cn1)NC(=O)[C@H](CCCNC(=N)N)NC(=O)[C@H](CC(C)C)NC(=O)[C@H](Cc1ccccc1)NC(=O)[C@H](Cc1c[nH]cn1)NC(=O)[C@H](C)NC(=O)[C@H](CC(C)C)NC(=O)[C@H](CCCNC(=N)N)NC(=O)[C@H](CCC(N)=O)NC(=O)[C@@H](NC(=O)[C@H](C)NC(=O)[C@@H]1CSSC[C@H](NC(=O)[C@H](CCCNC(=N)N)NC(=O)CNC(=O)CC[C@H](NC(=O)CCCCCCCCCCCCCCCCCCC(=O)O)C(=O)O)C(=O)N[C@@H](CC(N)=O)C(=O)N[C@@H]([C@@H](C)O)C(=O)N[C@@H](C)C(=O)N[C@@H]([C@@H](C)O)C(=O)N1)[C@@H](C)O)C(=O)N1CCC[C@H]1C(=O)N[C@@H](CO)C(=O)N[C@@H](CO)C(=O)N[C@H](C(=O)N[C@@H](CC(N)=O)C(=O)N[C@H](C(=O)NCC(=O)N[C@@H](CO)C(=O)N[C@@H](CC(N)=O)C(=O)N[C@H](C(=O)N[C@@H](Cc1ccc(O)cc1)C(N)=O)[C@@H](C)O)C(C)C)[C@@H](C)O [Example 99] ({C20 diacid-γGlu}-GRCNTATCATQRLAHFLRHSSPNFGAIPSSTNVGSNTY-NH2; disulfide 3-8)
0.217 | 7.86 | 0.179 | 2.9 | – | – | – | 0.062 | CC[C@H](C)[C@H](NC(=O)[C@H](C)NC(=O)CNC(=O)[C@H](Cc1ccccc1)NC(=O)[C@H](CC(N)=O)NC(=O)[C@@H]1CCCN1C(=O)[C@H](CO)NC(=O)[C@H](CO)NC(=O)[C@H](Cc1c[nH]cn1)NC(=O)[C@H](CCCNC(=N)N)NC(=O)[C@H](CC(C)C)NC(=O)[C@H](Cc1ccccc1)NC(=O)[C@H](Cc1c[nH]cn1)NC(=O)[C@H](C)NC(=O)[C@H](CC(C)C)NC(=O)[C@H](CCCNC(=N)N)NC(=O)[C@H](CCC(N)=O)NC(=O)[C@@H](NC(=O)[C@H](C)NC(=O)[C@@H]1CSSC[C@H](NC(=O)[C@H](CCCNC(=N)N)NC(=O)CNC(=O)CC[C@H](NC(=O)CCCCCCCCCCCCCCCCCCC(=O)O)C(=O)O)C(=O)N[C@@H](CC(N)=O)C(=O)N[C@@H]([C@@H](C)O)C(=O)N[C@@H](C)C(=O)N[C@@H]([C@@H](C)O)C(=O)N1)[C@@H](C)O)C(=O)N1CCC[C@H]1C(=O)N[C@@H](CO)C(=O)N[C@@H](CO)C(=O)N[C@H](C(=O)N[C@@H](CC(N)=O)C(=O)N[C@H](C(=O)NCC(=O)N1CCC[C@H]1C(=O)N[C@@H](CC(N)=O)C(=O)N[C@H](C(=O)N[C@@H](Cc1ccc(O)cc1)C(N)=O)[C@@H](C)O)C(C)C)[C@@H](C)O [Example 102] ({C20 diacid-γGlu}-GRCNTATCATQRLAHFLRHSSPNFGAIPSSTNVGPNTY-NH2; disulfide 3-8)
0.525 | 15.2 | 7.05 | – | – | – | – | 0.445 | CC[C@H](C)[C@H](NC(=O)[C@H](C)NC(=O)CNC(=O)[C@H](Cc1ccccc1)NC(=O)[C@H](CC(N)=O)NC(=O)[C@@H]1CCCN1C(=O)[C@H](CO)NC(=O)[C@H](CO)NC(=O)[C@H](Cc1c[nH]cn1)NC(=O)[C@H](CCCNC(=N)N)NC(=O)[C@H](CC(C)C)NC(=O)[C@H](Cc1ccccc1)NC(=O)[C@H](CCC(=O)O)NC(=O)[C@H](C)NC(=O)[C@H](CC(C)C)NC(=O)[C@H](CCCNC(=N)N)NC(=O)[C@H](CCC(N)=O)NC(=O)[C@@H](NC(=O)[C@H](C)NC(=O)[C@@H]1CSSC[C@H](NC(=O)[C@@H](N)CCCCNC(=O)CC[C@H](NC(=O)CC[C@H](NC(=O)CCCCCCCCCCCCCCCCCCC(=O)O)C(=O)O)C(=O)O)C(=O)N[C@@H](CC(N)=O)C(=O)N[C@@H]([C@@H](C)O)C(=O)N[C@@H](C)C(=O)N[C@@H]([C@@H](C)O)C(=O)N1)[C@@H](C)O)C(=O)N1CCC[C@H]1C(=O)N[C@@H](CO)C(=O)N[C@@H](CO)C(=O)N[C@H](C(=O)N[C@@H](CC(N)=O)C(=O)N[C@H](C(=O)NCC(=O)N[C@@H](Cc1c[nH]cn1)C(=O)N[C@@H](CCC(=O)O)C(=O)N[C@H](C(=O)N[C@@H](Cc1ccc(O)cc1)C(N)=O)[C@@H](C)O)C(C)C)[C@@H](C)O [Example 104] (H-K([γGlu-γGlu-C20 diacid])CNTATCATQRLAEFLRHSSPNFGAIPSSTNVGHETY-NH2; disulfide 2-7)
0.58 | 10.8 | 2.21 | – | – | – | – | 0.034 | CC[C@H](C)[C@H](NC(=O)[C@H](C)NC(=O)CNC(=O)[C@H](Cc1ccccc1)NC(=O)[C@H](CC(N)=O)NC(=O)[C@@H]1CCCN1C(=O)[C@H](CO)NC(=O)[C@H](CO)NC(=O)[C@H](Cc1c[nH]cn1)NC(=O)[C@H](CCCNC(=N)N)NC(=O)[C@H](CC(C)C)NC(=O)[C@H](Cc1ccccc1)NC(=O)[C@H](CC(N)=O)NC(=O)[C@H](C)NC(=O)[C@H](CC(C)C)NC(=O)[C@H](CCCNC(=N)N)NC(=O)[C@H](CCC(N)=O)NC(=O)[C@@H](NC(=O)[C@H](C)NC(=O)[C@@H]1CSSC[C@H](NC(=O)[C@@H](N)CCCCNC(=O)CC[C@H](NC(=O)CCCCCCCCCCCCCCC(=O)O)C(=O)O)C(=O)N[C@@H](CC(N)=O)C(=O)N[C@@H]([C@@H](C)O)C(=O)N[C@@H](C)C(=O)N[C@@H]([C@@H](C)O)C(=O)N1)[C@@H](C)O)C(=O)N1CCC[C@H]1C(=O)N[C@@H](CO)C(=O)N[C@@H](CO)C(=O)N[C@H](C(=O)N[C@@H](CC(N)=O)C(=O)N[C@H](C(=O)NCC(=O)N[C@@H](Cc1c[nH]cn1)C(=O)N[C@@H](CC(N)=O)C(=O)N[C@H](C(=O)N[C@@H](Cc1ccc(O)cc1)C(N)=O)[C@@H](C)O)C(C)C)[C@@H](C)O [Example 111]
1.04 | 24.3 | 1.09 | – | – | – | – | 0.028 | CC[C@H](C)[C@H](NC(=O)[C@H](C)NC(=O)CNC(=O)[C@H](Cc1ccccc1)NC(=O)[C@H](CC(N)=O)NC(=O)[C@@H]1CCCN1C(=O)[C@H](CO)NC(=O)[C@H](CO)NC(=O)[C@H](Cc1c[nH]cn1)NC(=O)[C@H](CCCNC(=N)N)NC(=O)[C@H](CC(C)C)NC(=O)[C@H](Cc1ccccc1)NC(=O)[C@H](CC(N)=O)NC(=O)[C@H](C)NC(=O)[C@H](CC(C)C)NC(=O)[C@H](CCCNC(=N)N)NC(=O)[C@H](CCC(N)=O)NC(=O)[C@@H](NC(=O)[C@H](C)NC(=O)[C@@H]1CSSC[C@H](NC(=O)[C@@H](N)CCCCNC(=O)CC[C@H](NC(=O)CCCCCCCCCCCCC(=O)O)C(=O)O)C(=O)N[C@@H](CC(N)=O)C(=O)N[C@@H]([C@@H](C)O)C(=O)N[C@@H](C)C(=O)N[C@@H]([C@@H](C)O)C(=O)N1)[C@@H](C)O)C(=O)N1CCC[C@H]1C(=O)N[C@@H](CO)C(=O)N[C@@H](CO)C(=O)N[C@H](C(=O)N[C@@H](CC(N)=O)C(=O)N[C@H](C(=O)NCC(=O)N[C@@H](Cc1c[nH]cn1)C(=O)N[C@@H](CC(N)=O)C(=O)N[C@H](C(=O)N[C@@H](Cc1ccc(O)cc1)C(N)=O)[C@@H](C)O)C(C)C)[C@@H](C)O [Example 112]
